Test results: patent US5350864A, “Aminoalkylcarbamyl derivatives of forskolin as intermediates for the synthesis of useful forskolin derivatives” (The United States of America as represented by the …, priority 1990, dated 1994)
pKd: −log10 of the molar value. Entries after “also recorded” stand apart in the source; their conditions may differ. Where two headings read alike, the source gives them in different places. Values belong to the compound of their own block, whether it stands above or below them.

What was measured:
adenylate cyclase [1] = assay: Photolabelling of bovine brain membranes, SDS gel electrophoresis; type: binding
Method: (§1) Derivative 20 (6-AIPPS-Fsk) is incubated with partially purified preparations of bovine brain adenylate cyclase, photolyzed, and then the radioactive proteins are analyzed by SDS gel electrophoresis. […] 6-AIPPS-Fsk can also label adenylate cyclase in crude membranes. 6-AIPPS-Fsk is incubated with bovine brain membranes, photolyzed, and the radioactive proteins are analyzed by SDS gel electrophoresis.

P-glycoprotein [2] = target: T1, P-glycoprotein (Homo sapiens, UniProt P08183)
T1 sequence (P08183 whole entry): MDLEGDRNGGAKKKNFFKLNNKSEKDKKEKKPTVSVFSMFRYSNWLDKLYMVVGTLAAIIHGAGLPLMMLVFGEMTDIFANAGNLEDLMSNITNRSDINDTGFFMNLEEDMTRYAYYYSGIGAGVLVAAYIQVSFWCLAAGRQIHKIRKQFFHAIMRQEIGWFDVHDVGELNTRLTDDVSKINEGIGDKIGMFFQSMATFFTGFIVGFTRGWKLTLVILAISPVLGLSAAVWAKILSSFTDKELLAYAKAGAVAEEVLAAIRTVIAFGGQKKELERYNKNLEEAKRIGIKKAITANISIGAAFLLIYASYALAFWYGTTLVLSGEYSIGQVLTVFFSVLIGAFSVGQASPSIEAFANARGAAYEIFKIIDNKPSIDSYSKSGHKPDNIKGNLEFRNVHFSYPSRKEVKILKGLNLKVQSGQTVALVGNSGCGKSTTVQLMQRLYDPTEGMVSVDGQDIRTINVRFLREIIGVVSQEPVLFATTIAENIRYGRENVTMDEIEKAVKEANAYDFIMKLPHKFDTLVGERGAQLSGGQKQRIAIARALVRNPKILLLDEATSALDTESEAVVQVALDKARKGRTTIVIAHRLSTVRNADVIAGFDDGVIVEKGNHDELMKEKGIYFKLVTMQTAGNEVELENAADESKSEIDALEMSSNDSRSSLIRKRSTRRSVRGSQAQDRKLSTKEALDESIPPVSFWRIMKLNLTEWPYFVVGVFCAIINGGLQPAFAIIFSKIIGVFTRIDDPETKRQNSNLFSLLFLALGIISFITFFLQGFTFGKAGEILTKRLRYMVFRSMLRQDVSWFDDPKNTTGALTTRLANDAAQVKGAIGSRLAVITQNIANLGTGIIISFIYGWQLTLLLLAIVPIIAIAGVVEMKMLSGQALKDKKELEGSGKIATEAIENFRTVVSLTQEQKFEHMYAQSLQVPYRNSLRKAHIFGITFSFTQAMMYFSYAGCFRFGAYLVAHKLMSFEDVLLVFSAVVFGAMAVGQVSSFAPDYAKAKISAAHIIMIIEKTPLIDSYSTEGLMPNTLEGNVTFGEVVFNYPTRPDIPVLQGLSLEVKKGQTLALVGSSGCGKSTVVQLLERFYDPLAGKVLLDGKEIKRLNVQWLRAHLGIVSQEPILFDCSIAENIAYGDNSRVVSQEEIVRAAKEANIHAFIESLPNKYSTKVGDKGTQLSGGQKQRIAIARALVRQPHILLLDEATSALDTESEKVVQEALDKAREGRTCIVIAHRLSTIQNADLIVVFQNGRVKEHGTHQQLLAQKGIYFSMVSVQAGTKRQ

cancer cells = conditions: certain cancer cells; literature; cited from earlier work
adenylate cyclase [3] = conditions: literature, cited from earlier work
adenylate cyclase [4] = assay: Filtration binding assay, ^125 I-labelled derivative 19 (6-^125 I-HPP-Fsk) to bovine brain membranes; conditions: for inhibition of 6-^125 I-HPP-Fsk binding: 60 min
Excerpt: (§2) Derivative 19 (6-^125 I-HPP-Fsk) was used to develop a binding assay for adenylate cyclase (Example 4). […] Therefore, a filtration assay can be used to separate the bound from free ligand and determine the amount of high affinity binding. […] Analogs of forskolin that activate adenylate cyclase inhibit the binding of 6-^125 I-HPP-Fsk to membranes. The ability of an agent to inhibit 6-^125 I-HPP-Fsk binding to membranes is therefore indicative of its ability to stimulate adenylate cyclase.
Binding of 6-^125 I-HPP-Fsk to Membranes--Crude membranes from bovine brain were incubated for 60 minutes at […] 20° C. with 20,000 cpm of 6-^125 I-HPP-Fsk. Binding equilibrium was reached by 45 minutes and was constant for at least 2 hours (data not shown). The incubations were carried out at 20° C. for 60 minutes in 12×75 glass test tubes in a total volume of 0.4 mL […] Tris-HCl buffer, pH 7.4. The membranes (0.40 mg/tube) were incubated in the presence of 5 mM MgCl2 and 10 mM NaF. The assay was terminated by the addition of 5 mL of cold Tris-HCl buffer to the tubes and rapid filtration over Whatman GF/C filters using a Brandel cell harvester. The assay was terminated as described above and the filters counted in a gamma counter. The nonspecific binding was calculated as the amount of label not displaced by 20 uM forskolin. The non specific binding was about 20% of the total bound.

glucose transporter [5] = conditions: cited from earlier work
adenylate cyclase [6] = assay: Photolabelling of partially purified bovine brain adenylate cyclase, SDS gel electrophoresis; type: binding
Method: as §1

[7] = literature; cited from earlier work
glucose transporter [8] = target: T2, glucose transporter (Homo sapiens, UniProt P11166); assay: Filtration binding assay, ^125 I-labelled derivative 8 (7-^125 I-HPP-Fsk) to human red blood cell membranes; conditions: for inhibition of 7-^125 I-HPP-Fsk binding: human red blood cell membranes
T2 construct: Crude membranes from human red blood cells; from tissue; host or cells: human red blood cells, membranes
T2 sequence (P11166 1-492): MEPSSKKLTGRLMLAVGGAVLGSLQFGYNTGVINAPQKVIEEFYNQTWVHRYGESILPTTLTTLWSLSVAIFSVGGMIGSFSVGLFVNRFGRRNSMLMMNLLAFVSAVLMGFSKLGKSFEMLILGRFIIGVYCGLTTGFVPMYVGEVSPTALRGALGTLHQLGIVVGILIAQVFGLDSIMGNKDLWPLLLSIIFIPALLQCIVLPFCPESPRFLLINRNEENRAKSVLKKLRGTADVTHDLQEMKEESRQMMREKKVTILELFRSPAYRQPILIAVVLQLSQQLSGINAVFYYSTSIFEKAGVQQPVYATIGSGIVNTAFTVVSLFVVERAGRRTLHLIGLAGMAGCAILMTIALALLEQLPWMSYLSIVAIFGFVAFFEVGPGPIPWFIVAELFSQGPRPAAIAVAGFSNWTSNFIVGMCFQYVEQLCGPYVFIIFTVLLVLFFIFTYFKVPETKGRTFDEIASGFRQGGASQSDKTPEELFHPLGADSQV
Method: Binding of 7-^125 IHPP-Fsk to Membranes--Crude membranes from human red blood cells were incubated for 60 minutes at 20° C. with 20,000 cpm of 7-^125 IHPP-Fsk. […] The incubations were carried out at 20° C. for 60 minutes in 12×75 glass test tubes in a total volume of 0.4 mL 50 mM Tris-HCl buffer, pH 7.4. The assay was terminated by the addition of 4 mL of cold Tris-HCl buffer to the tubes at rapid filtration over Whatman GF/C filters using a Brandel cell harvester. The assay was terminated as described above and the filters counted in a gamma counter. The nonspecific binding was calculated as the amount of label not displaced by 20 μM forskolin.

P-glycoprotein [9] = assay: Binding to the P-glycoprotein
[10] = tested on: bovine brain adenylate cyclase; assay: Activation of bovine brain adenylate cyclase; type: biochemical; conditions: relative to forskolin
[11] = Stability to heating in base; type: physicochemical; conditions: heating in 0.1N KOH in methanol, two hours, 60° C.
Method: The 7-aminoethylcarbamate can be synthesized using the 1,9-dimethylformamide acetal of 7-desacetylforskolin as starting material (see synthetic scheme of FIG. 2). The selective reactivity of carbonyldiimidazole (CDI) with the equatorial 7β-hydroxyl group is exploited to form the 7-acylimidazole intermediate. The reaction of the 7-acylimidazole intermediate with ethylenediamine produces the 7-aminoethylcarbamate of forskolin (see 3 in FIG. 1 and Example 1). The same procedure is carried out to produce 7β-aminobutylcarbamate (5), 7β-aminohexylcarbamate (6), and the 7β-aminoheptylcarbamate (7) of forskolin. The 7β-aminoalkylcarbamates of forskolin are very stable compounds. The 7β-aminoethylcarbamate of forskolin is stable to heating in 0.1N KOH in methanol for two hours at 60° C.

Water solubility = type: physicochemical; conditions: relative to forskolin
adenylate cyclase [12] = assay: Binding of 6-^125 I-HPP-Fsk to membranes from human platelets
Excerpt: as §2

P-glycoprotein [13] = target: T1, P-glycoprotein; assay: Photolabelling of membranes from human ovarian carcinoma cell line overexpressing P-glycoprotein
glucose transporter [14] = assay: Binding of 7-^125 I-HPP-Fsk to rat muscle
Excerpt: (§3) 7-^125 I-HPP-Fsk also binds with high affinity to other tissues including bovine brain, rat heart, rat muscle, and human platelets. The binding of 7-^125 I-HPP-Fsk to these tissues is inhibited by D-glucose and cytochalasin B. Therefore, 7-^125 I-HPP-Fsk binds with high affinity to the glucose transporter in diverse tissues.

glucose transporter [15] = conditions: read-out: affinity of cytochalasin B; cited from earlier work
glucose transporter [16] = assay: Binding of 7-^125 I-HPP-Fsk to bovine brain
Excerpt: as §3

glucose transporter [17] = target: T2, glucose transporter; assay: Photolabelling of human red blood cell membranes, SDS gel electrophoresis; type: binding
Method: Derivative 9 (7-AIPPS-Fsk) is incubated with human red blood cell membranes, photolyzed, and then the radioactive proteins were analyzed by SDS gel electrophoresis.

glucose transporter [18] = assay: Binding of 7-^125 I-HPP-Fsk to rat heart
Excerpt: as §3

glucose transporter [19] = target: T3, glucose transporter (Homo sapiens, UniProt P11169); assay: Binding of 7-^125 I-HPP-Fsk to human platelets
T3 construct: other tissues including bovine brain, rat heart, rat muscle, and human platelets; from tissue; host or cells: human platelets
T3 sequence (P11169 1-496): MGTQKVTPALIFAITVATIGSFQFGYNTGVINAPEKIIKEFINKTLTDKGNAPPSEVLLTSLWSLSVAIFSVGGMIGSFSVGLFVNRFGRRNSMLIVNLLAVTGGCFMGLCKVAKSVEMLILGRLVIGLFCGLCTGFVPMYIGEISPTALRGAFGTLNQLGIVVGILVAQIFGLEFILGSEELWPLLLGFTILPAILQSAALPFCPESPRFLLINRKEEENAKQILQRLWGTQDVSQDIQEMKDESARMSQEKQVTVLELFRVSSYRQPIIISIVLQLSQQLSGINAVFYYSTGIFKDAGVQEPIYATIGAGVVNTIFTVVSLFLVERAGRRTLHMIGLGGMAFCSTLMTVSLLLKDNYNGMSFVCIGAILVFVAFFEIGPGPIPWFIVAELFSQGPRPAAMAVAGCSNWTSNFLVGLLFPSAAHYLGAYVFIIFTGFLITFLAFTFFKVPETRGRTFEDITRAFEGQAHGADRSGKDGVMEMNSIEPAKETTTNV
Excerpt: as §3

Compound: C=C[C@@]1(C)CC(=O)[C@@H]2[C@@]3(C)CCCC(C)(C)[C@@H]3[C@H](O)[C@H](OC(C)=O)[C@@]2(C)O1 [1,9-dideoxyforskolin]
inhibition of labelling by 6-AIPPS-Fsk (adenylate cyclase [1]): not inhibited
inhibition of labelling by 6-AIPPS-Fsk (P-glycoprotein [2]): more potent at inhibiting the labelling by 6-AIPPS-Fsk than forskolin
sensitization to cytotoxic effects of drugs (cancer cells): can sensitize certain cancer cells to the cytotoxic effects of drugs
activation of adenylate cyclase (adenylate cyclase [3]): inability
activation of adenylate cyclase (adenylate cyclase [3]; listed as 1,9-Dideoxyforskolin): does not activate adenylate cyclase; also recorded: not active at adenylate cyclase
inhibition of 6-^125 I-HPP-Fsk binding (adenylate cyclase [4]; bovine brain membranes, 20° C.): not by 1,9-dideoxyforskolin
inhibition of glucose transport (glucose transporter [5]; adipocyte membranes, literature): inhibit glucose transport in adipocyte membranes

Compound: C=C[C@@]1(C)CC(=O)[C@]2(O)[C@@]3(C)[C@@H](O)CCC(C)(C)[C@@H]3[C@H](O)[C@H](OC(C)=O)[C@@]2(C)O1 [Compound 1, forskolin]
inhibition of labelling by 6-AIPPS-Fsk (adenylate cyclase [6]): inhibited
sensitization to cytotoxic effects of drugs (cancer cells): can sensitize certain cancer cells to the cytotoxic effects of drugs
cardiotonic effects [7]: marked cardiotonic effects
activation of adenylate cyclase (adenylate cyclase [3]): activate the enzyme adenylate cyclase and increase intracellular cyclic AMP
inhibition of 6-^125 I-HPP-Fsk binding (adenylate cyclase [4]; bovine brain membranes, 20° C.): inhibited
binding affinity / selectivity (glucose transporter [8]): binds to the glucose transporter in human red blood cells
inhibition of 7-^125 I-HPP-Fsk binding (glucose transporter [8]): inhibited
potency at activating adenylate cyclase versus inhibiting glucose transport (glucose transporter [5]; relative to adenylate cyclase activation): equipotent
binding to P-glycoprotein (P-glycoprotein [9]): bind to the P-glycoprotein

stability [11]: stable
water solubility (Water solubility): enhanced water solubility
potency relative to 6-aminoethylcarbamyl derivative 4 at inhibiting binding of 7-^125 I-HPP-Fsk (glucose transporter [8]; erythrocyte membranes): about 30 fold
Compound: C=C[C@@]1(C)CC(=O)[C@]2(O)[C@@]3(C)[C@@H](O)CCC(C)(C)[C@@H]3[C@H](O)[C@H](OC(=O)NCCN)[C@@]2(C)O1 [Compound 3, 7-aminoethyl-carbamylforskolin]
extent of stimulation of adenylate cyclase [10]: stimulate adenylate cyclase to a greater extent than forskolin

Compound: C=C[C@@]1(C)CC(=O)[C@]2(O)[C@@]3(C)[C@@H](O)CCC(C)(C)[C@@H]3[C@H](OC(=O)NCCNC(=O)CCc3ccc(O)c([125I])c3)[C@H](OC(C)=O)[C@@]2(C)O1 [Derivative 19]
pKd (adenylate cyclase [12]): ~7.60
time binding was constant (adenylate cyclase [4]; 20° C.): at least 2 hours
time to binding equilibrium (adenylate cyclase [4]; 20° C.): ≤ 45 min
selectivity of 6-^125 I-HPP-Fsk binding (adenylate cyclase [4]; adenylate cyclase versus glucose transporter, listed as 6-^125 I-HPP-Fsk): not binding with high affinity to the glucose transporter in brain tissue; also recorded: specific for adenylate cyclase
binding affinity (adenylate cyclase [4]; bovine brain membranes): high affinity
pKd (adenylate cyclase [4]; membranes from bovine brain): ~7.60

Compound: COc1cccc2c1C(=O)c1c(O)c3c(c(O)c1C2=O)C[C@@](O)(C(=O)CO)C[C@@H]3O[C@H]1C[C@H](N)[C@H](O)[C@H](C)O1 [adriamycin]
inhibition of labelling by 6-AIPPS-Fsk (P-glycoprotein [13]): inhibited

Compound: C=C1C(C)C2C(Cc3ccccc3)NC(=O)C23OC(=O)/C=C/C(O)CCCC(C)C/C=C/C3C1O (stereo not drawn) [cytochalasin B]
inhibition of 7-^125 I-HPP-Fsk binding (glucose transporter [14]): inhibited
pKd (glucose transporter [15]): ~6.00
inhibition of 7-^125 I-HPP-Fsk binding (glucose transporter [16]): inhibited
inhibition of labelling by 7-AIPPS-Fsk (glucose transporter [17]): inhibited
inhibition of 6-^125 I-HPP-Fsk binding (adenylate cyclase [4]; bovine brain membranes, 20° C.): not inhibited
inhibition of 7-^125 I-HPP-Fsk binding (glucose transporter [8]): inhibition of binding; also recorded: inhibited
inhibition of 7-^125 I-HPP-Fsk binding (glucose transporter [8]; listed as cytochlasin B): inhibited
inhibition of 7-^125 I-HPP-Fsk binding (glucose transporter [18]): inhibited
inhibition of 7-^125 I-HPP-Fsk binding (glucose transporter [19]): inhibited
